Test results taken from US6818391B2, “Glutamate transporters” (The Regents of the University of California, priority 2000, dated 2004).
Where “and” joins values, the source holds several entries; their conditions need not be identical. Equal values may be shown once. Entries after “also recorded” stand apart in the source; their conditions may differ.

Key:
[1] = test system: untransfected PC12 cell membranes; experiment: background 3H-glutamate uptake by membranes from untransfected PC12 cells; format: biochemical, rat; conditions: uptake at 5 min
Method: To initiate the transport reaction, we added 10 μl of membranes to 190 μl of SH buffer containing 4 mM KCl, 4 mM MgSO4, 4 mM ATP, and 50 μM 3H-glutamate, with other additions noted in the text and figure legends. […] Background uptake was determined using membranes prepared from untransfected cells that were incubated for the same amount of time at the same temperature. Transport measurements were performed in duplicate with at least two different preparations of membranes. The Km was calculated by averaging the results of two separate determinations.

BNPI (VGLUT1) = target: T1, BNPI (VGLUT1) (Rattus norvegicus, UniProt Q62634); experiment: acridine orange fluorescence quenching (vesicle acidification) of BNPI-expressing membranes; format: biochemical; conditions: for acidification of BNPI-expressing versus control membranes: 90 mM chloride (KCl)
T1 construct: expressed in transfected cells; light membranes prepared from them
T1 sequence (Q62634 1-560): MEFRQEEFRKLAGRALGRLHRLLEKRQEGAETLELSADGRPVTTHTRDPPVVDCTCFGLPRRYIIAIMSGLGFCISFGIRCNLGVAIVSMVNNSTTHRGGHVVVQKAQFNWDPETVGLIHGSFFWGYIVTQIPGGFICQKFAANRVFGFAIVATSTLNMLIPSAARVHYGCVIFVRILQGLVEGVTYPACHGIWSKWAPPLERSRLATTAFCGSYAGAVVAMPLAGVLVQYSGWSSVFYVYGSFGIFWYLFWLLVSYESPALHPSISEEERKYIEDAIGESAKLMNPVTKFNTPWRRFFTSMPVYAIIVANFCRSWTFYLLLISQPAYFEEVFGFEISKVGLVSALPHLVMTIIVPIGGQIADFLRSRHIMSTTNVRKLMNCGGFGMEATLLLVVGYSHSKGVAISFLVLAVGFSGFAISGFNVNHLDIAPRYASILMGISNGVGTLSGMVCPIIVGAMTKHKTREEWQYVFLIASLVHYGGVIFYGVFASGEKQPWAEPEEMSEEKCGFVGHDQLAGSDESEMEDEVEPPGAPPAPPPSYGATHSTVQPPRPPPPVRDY
Method: (§1) Native synaptic vesicles acidify during glutamate uptake (Maycox et al. (1988) J. Biol. Chem., 263: 15423). Glutamate presumably serves as a counterion for protons and dissipates ΔΨ, enabling the vacuolar H+-ATPase to generate a larger ΔpH, but cotransport of H+ with glutamate remains an alternative possibility. To determine whether acidification also accompanies glutamate transport by BNPI, we used the quenching of acridine orange fluorescence to measure vesicle pH. Membranes (200 μg of protein) were diluted into 2 ml of 0.3 M sucrose and 10 mM tris-Mops (pH 7.4) containing 4 mM MgSO4 and 5 μM acridine orange and incubated at 37° C. with continuous stirring. Fluorescence was monitored with a Hitachi F4500 spectrofluorimeter at an excitation wavelength of 492 nm and emission of 530 nm. Separate measurements were made with at least three different membrane preparations for wild-type and transfected cells; representative tracings are shown in FIG. 5.

DNPI/VGLUT2 = target: T2, DNPI/VGLUT2 (Rattus norvegicus, UniProt Q9JI12); experiment: 3H-L-glutamate uptake by membranes from PC12 cells expressing DNPI/VGLUT2; format: biochemical
T2 construct: To reconstruct the full open reading frame, the missing segment was amplified from rat brain cDNA by PCR; expressed in transfected cells; light membranes prepared from them
T2 sequence (Q9JI12 1-582): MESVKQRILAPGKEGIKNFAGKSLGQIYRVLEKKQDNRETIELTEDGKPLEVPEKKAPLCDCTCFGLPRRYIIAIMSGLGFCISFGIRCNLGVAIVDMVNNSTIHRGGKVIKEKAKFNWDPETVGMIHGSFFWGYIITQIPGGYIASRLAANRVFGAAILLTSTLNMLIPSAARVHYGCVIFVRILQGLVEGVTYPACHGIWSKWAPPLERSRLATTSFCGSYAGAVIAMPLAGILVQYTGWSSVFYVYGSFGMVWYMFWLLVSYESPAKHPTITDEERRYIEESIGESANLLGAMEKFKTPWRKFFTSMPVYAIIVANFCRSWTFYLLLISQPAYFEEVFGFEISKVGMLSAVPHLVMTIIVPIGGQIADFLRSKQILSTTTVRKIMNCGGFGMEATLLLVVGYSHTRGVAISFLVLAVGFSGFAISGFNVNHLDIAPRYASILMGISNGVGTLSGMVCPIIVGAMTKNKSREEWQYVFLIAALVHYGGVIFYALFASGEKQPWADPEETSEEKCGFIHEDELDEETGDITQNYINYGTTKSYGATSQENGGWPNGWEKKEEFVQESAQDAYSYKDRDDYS
Method: PC12 cells were grown in Dulbecco's modified Eagle's medium containing 10% equine serum, 5% calf serum and transfected by electroporation with the rat DNPI/VGLUT2 cDNA subcloned in the pcDNA3 vector containing an […] (Krantz et al. (2000) J. Cell Biol. 149). Stable transformants were selected for resistance to the neomycin analog G418 (500 μg/ml) and screened by immunofluorescence with the DNPI antibody, resulting in the identification of two independent clones with more than 80% of the cells expressing DNPI.
For membrane preparation, untransfected and DNPI-expressing PC12 cells were grown on 15 cm plates, washed with calcium- and magnesium-free PBS, collected in 0.32 M sucrose/10 mM HEPES-KOH, pH 7.4 (SH buffer) containing protease inhibitors (2 μg/ml leupeptin, 1 μg/ml pepstatin, 1 μg/ml E64, 0.2 mM diisopropylfluorphosphate, 2 μg/ml aprotinin, and 1.25 mM MgEGTA), homogenized using a ball bearing device and the homogenate sedimented at 1000 g for 5 min to remove nuclei and debris. The supernatant was then sedimented at 27,000 g for 35 min to remove heavier membranes. The remaining light membranes including small synaptic-like microvesicles were then sedimented at 210,000 g for 1 hour. The pellet was resuspended in SH buffer with protease inhibitors at ˜10 mg protein/ml.
To initiate the transport reaction, 20 μl membranes (˜200 μg protein) were added to 180 μl SH buffer containing 4 mM KCl, 4 mM MgSO4, […], and 100 μM ^3H-L-glutamate, with other additions noted in the text and figure legends. The reaction mixture was incubated at 29° C. for varying intervals, uptake was terminated by rapid filtration through Supor-200 membranes (Gelman) and the filters were washed rapidly four times with 1.5 ml cold 0.155 M potassium tartrate/10 mm HEPES-KOH, pH 7.4 before measuring the bound radioactivity by scintillation counting in 3 ml Cytoscint (ICN). Uptake specifically mediated by DNPI/VGLUT2 was determined by subtracting the background uptake of untransfected cell membranes from the uptake by transfected cell membranes. To examine the chloride dependence of transport, varying proportions of 0.14 M K gluconate and 0.14 M KCl were mixed in the standard reaction buffer (without sucrose) to vary the chloride concentration and maintain constant osmolarity. The ionophores nigericin and valinomycin used in FIG. 13E were prepared as 200× stock solutions in ethanol. The final ethanol concentration in the reaction mixture was 1%.

[2] = test system: untransfected PC12 cell membranes; experiment: acridine orange fluorescence quenching of untransfected cell membranes; format: biochemical, rat; conditions: 10 mM glutamate
Method: as §1

| Structure (SMILES) | effect on background glutamate uptake by untransfected cell membranes [1] | acidification (lumenal pH) of membranes expressing BNPI (BNPI (VGLUT1); 10 mM glutamate, with ATP and 4 mM KCl) | effect on rate of chloride-dependent acidification of BNPI membranes (BNPI (VGLUT1); 10 mM, KCl 20, 50, 140 mM) | effect on acidification of BNPI-expressing membranes by chloride (BNPI (VGLUT1); 10 mM, listed as Glutamate) | effect on acidification of BNPI-expressing membranes by chloride (BNPI (VGLUT1); 10 mM, listed as glutamate) | inhibition of DNPI-mediated 3H-L-glutamate uptake (DNPI/VGLUT2; 10 mM, uptake at 5 minutes) | Km (DNPI/VGLUT2; initial rate at 1 minute, 0.03-10 mM L-glutamate, Lineweaver-Burke) | effect on acidification produced by chloride in nontransfected cell membranes [2] | acidification of BNPI-expressing versus control membranes (BNPI (VGLUT1)) | acidification of BNPI-expressing versus control membranes (BNPI (VGLUT1); listed as KCl) | specific 3H-L-glutamate uptake by DNPI at high chloride (DNPI/VGLUT2; 140 mM chloride) | chloride concentration for maximal 3H-L-glutamate uptake by DNPI (DNPI/VGLUT2; uptake at 5 minutes) |
| --- | --- | --- | --- | --- | --- | --- | --- | --- | --- | --- | --- | --- |
| N[C@@H](CCC(=O)O)C(=O)O [L-Glutamate] | had little effect | reduced the lumenal pH; also recorded: acidifies membranes expressing BNPI | reduces the rate of acidification | blocks this chloride conductance; also recorded: reduces the acidification | decreased the acidification produced by chloride | markedly inhibits | 4.7 mM and ~5 mM | had no effect |  |  |  |  |
| Cl [chloride] |  |  |  |  |  |  |  |  | produces more acidification | considerably greater | little or no specific uptake is detectable | 2 to 10 mM and ~2 mM |
